For data set [1], the species on record is Mus musculus. Kind of data set: Cytotoxicity against Balb/c mouse B cells assessed as decrease in cell viability at 100 uM after 48 hrs by MTT assay. It is filed as toxicity, cell-based.
The species entered for data set [2] is Mus musculus. Kind of data set: Cytotoxicity against Balb/c mouse B cells assessed as decrease in cell viability at 10 uM after 48 hrs by MTT assay. It is filed as toxicity, cell-based.
Data set [3] is filed under the species Mus musculus. Kind of data set: Cytotoxicity against Balb/c mouse B cells assessed as decrease in cell viability at 1 uM after 48 hrs by MTT assay. It is filed as toxicity, cell-based.
Data set [4] is filed under the species Mus musculus. Nature of the data set: Cytotoxicity against Balb/c mouse T cells assessed as decrease in cell viability at 100 uM after 48 hrs by MTT assay. Type of data set: toxicity, cell-based.
The species named for data set [5] is Mus musculus. Kind of data set: Cytotoxicity against Balb/c mouse T cells assessed as decrease in cell viability at 10 uM after 48 hrs by MTT assay. It is filed as toxicity, cell-based.
For data set [6], the species on record is Mus musculus. Nature of the data set: Cytotoxicity against Balb/c mouse T cells assessed as decrease in cell viability at 1 uM after 48 hrs by MTT assay. Type of data set: toxicity, cell-based.
A short description of data set [7]: Immunosuppressive activity in Balb/c mouse T cells assessed as inhibition of ConA-induced cell proliferation at 100 uM after 48 hrs by MTT assay relative to control. Type of data set: functional.
Data set [8] can be described thus: Immunosuppressive activity in Balb/c mouse B cells assessed as inhibition of LPS-induced cell proliferation at 100 uM after 48 hrs by MTT assay relative to control. It is filed as functional.
Data set [9] can be described thus: Immunosuppressive activity in Balb/c mouse B cells assessed as inhibition of LPS-induced cell proliferation at 10 uM after 48 hrs by MTT assay relative to control. It is filed as functional.
Data set [10] is described as follows: Immunosuppressive activity in Balb/c mouse B cells assessed as inhibition of LPS-induced cell proliferation at 1 uM after 48 hrs by MTT assay relative to control. Type of data set: functional.
A further data set concerns T-cell. Nature of the data set: Immunosuppressive activity in Balb/c mouse T cells assessed as inhibition of ConA-induced cell proliferation after 48 hrs by MTT assay relative to control. It is filed as functional, cell-based.
Data set [11] is described as follows: Immunosuppressive activity in Balb/c mouse T cells assessed as inhibition of ConA-induced cell proliferation at 10 uM after 48 hrs by MTT assay relative to control. It is filed as functional.
The nature of data set [12]: Immunosuppressive activity in Balb/c mouse T cells assessed as inhibition of ConA-induced cell proliferation at 1 uM after 48 hrs by MTT assay relative to control. It is filed as functional.
For another data set, the system named is B. Nature of the data set: Immunosuppressive activity in Balb/c mouse B cells assessed as inhibition of LPS-induced cell proliferation after 48 hrs by MTT assay relative to control. It is filed as functional, cell-based.

For `CC(=O)Oc1cc(C)c2c(c1C)C[C@H]([C@@H](C)C(=O)OCc1cn(-c3ccc(Cl)c(Cl)c3)nn1)CC2`, the Activity entry in the data set listed under Mus musculus [1] is reported as “Toxic”; in the data set listed under Mus musculus [2], “Toxic”; in the data set listed under Mus musculus [3] it was “Non-Toxic”; in the data set filed under Mus musculus [4], “Toxic”; in the data set filed under Mus musculus [5], “Toxic”; in the data set filed under Mus musculus [6], “Non-Toxic”. Further, the inhibition at 100 µM in data set [7] is 11.8%; in data set [8] it was 49.5%. Moreover, the inhibition at 10 µM in [9] was 50.5%; in data set [11], 18.4%. For the same compound, the results for the inhibition at 1 µM in data set [10] and in data set [12] were 39% and 31.6%, respectively. The inhibition entry in the data set with T-cell and in the data set with B was “Dose-dependent effect” in each case.

`CC(=O)Oc1cc(C)c2c(c1C)C[C@H]([C@@H](C)C(=O)OCc1cn(-c3ccc(CO)cc3)nn1)CC2`: the Activity entry in the data set listed under Mus musculus [1], in the data set listed under Mus musculus [2], in the data set listed under Mus musculus [3], in the data set filed under Mus musculus [4], in the data set filed under Mus musculus [5] and in the data set listed under Mus musculus [6] was “Toxic” throughout. Further, the inhibition at 100 µM in [7] came out at 5.88%; in [8] it was 11.5%. Besides, the inhibition at 10 µM came out at 35.7% in data set [9] and 37.5% in data set [11]. Further, the inhibition at 1 µM in [10] and in data set [12] was 40% each time. For the same compound, the inhibition result in the data set with T-cell and in the data set on B was “Dose-dependent effect” each time.

With `CC(=O)Nc1ccc(-n2cc(COC(=O)[C@H](C)[C@@H]3CCc4c(C)cc(OC(C)=O)c(C)c4C3)nn2)cc1`, the Activity result in the data set filed under Mus musculus [1], in the data set listed under Mus musculus [2], in the data set filed under Mus musculus [3], in the data set filed under Mus musculus [4], in the data set listed under Mus musculus [5] and in the data set listed under Mus musculus [6] was “Toxic” in each case. Further, the inhibition at 100 µM in data set [7] amounted to 33.8%; in [8], 39%. Further, the inhibition at 10 µM is 31.3% in data set [9] and 50% in data set [11]. For the same compound, the inhibition at 1 µM was found to be 24.2% in [10] and 22.1% in data set [12]. Further, the inhibition entry in the data set on T-cell and in the data set with B was “Dose-dependent effect” throughout.

For `C#CCOC(=O)[C@H](C)[C@@H]1CCc2c(C)cc(OC(C)=O)c(C)c2C1`, the Activity result in the data set listed under Mus musculus [1] is on record as “Non-Toxic”; in the data set listed under Mus musculus [2], “Toxic”; in the data set filed under Mus musculus [3], “Non-Toxic”; in the data set listed under Mus musculus [4], “Non-Toxic”; in the data set filed under Mus musculus [5] it was “Toxic”; in the data set filed under Mus musculus [6] it was “Non-Toxic”. Besides, the figures for the inhibition at 100 µM in data set [7] and in data set [8] were 71.5% and 69.7%, respectively. Also, the inhibition at 10 µM was determined as 59.3% in data set [9] and 51.2% in data set [11]. The figures for the inhibition at 1 µM in data set [10] and in data set [12] were 57.8% and 41.7%, respectively. Besides, the inhibition result with T-cell and with B was “Dose-dependent effect” each time.

Turning to `COc1ccc(-n2cc(COC(=O)[C@H](C)[C@@H]3CCc4c(C)cc(OC(C)=O)c(C)c4C3)nn2)cc1`, the Activity entry in the data set filed under Mus musculus [1] is given as “Toxic”; in the data set filed under Mus musculus [2], “Non-Toxic”; in the data set filed under Mus musculus [3], “Toxic”; in the data set listed under Mus musculus [4] it was “Toxic”; in the data set filed under Mus musculus [5], “Non-Toxic”; in the data set filed under Mus musculus [6], “Toxic”. The figures for the inhibition at 100 µM in [7] and in [8] were 30.1% and 15.4%, respectively. The values for the inhibition at 10 µM in data set [9] and in [11] were 36.8% and 36%, respectively. Further, the results for the inhibition at 1 µM in data set [10] and in data set [12] were 42.3% and 33.8%, respectively. Besides, the inhibition entry in the data set with T-cell and in the data set on B was “Dose-dependent effect” throughout.

For `CC(=O)Oc1cc(C)c2c(c1C)C[C@H]([C@@H](C)C(=O)OCc1cn(-c3ccc(CC#N)cc3)nn1)CC2`, the Activity result in the data set filed under Mus musculus [1], in the data set listed under Mus musculus [2], in the data set listed under Mus musculus [3], in the data set listed under Mus musculus [4], in the data set listed under Mus musculus [5] and in the data set listed under Mus musculus [6] was “Toxic” throughout. For the same compound, the inhibition at 100 µM in data set [7] was 68.9%; in data set [8] it was 65.6%. Besides, the inhibition at 10 µM in data set [9] was found to be 58.8%; in [11] it was 47%. Besides, the inhibition at 1 µM in data set [10] worked out at 59.5%; in data set [12], 21.2%. In addition, the inhibition result in the data set with T-cell and in the data set with B was “Dose-dependent effect” in each case.

For `CC(=O)Oc1cc(C)c2c(c1C)C[C@H]([C@@H](C)C(=O)OCc1cn(-c3ccccc3CO)nn1)CC2`, the Activity result in the data set filed under Mus musculus [1], in the data set listed under Mus musculus [2], in the data set listed under Mus musculus [3], in the data set filed under Mus musculus [4], in the data set listed under Mus musculus [5] and in the data set listed under Mus musculus [6] was “Toxic” throughout. The inhibition at 100 µM in data set [7] was 81.1%; in data set [8], 53.4%. The inhibition at 10 µM in data set [9] amounted to 64.1%; in data set [11], 32.6%. Besides, the inhibition at 1 µM stood at 60.3% in data set [10] and 17.4% in data set [12]. The inhibition entry in the data set on T-cell and in the data set on B was “Dose-dependent effect” throughout.

On to `CC(=O)Oc1cc(C)c2c(c1C)C[C@H]([C@@H](C)C(=O)OCc1cn(-c3ccccc3F)nn1)CC2`, for which the Activity entry in the data set listed under Mus musculus [1], in the data set listed under Mus musculus [2], in the data set filed under Mus musculus [3], in the data set listed under Mus musculus [4], in the data set listed under Mus musculus [5] and in the data set listed under Mus musculus [6] was “Non-Toxic” throughout. In addition, the inhibition at 100 µM is 5.88% in data set [7] and 39.6% in data set [8]. In addition, the inhibition at 10 µM in data set [9] was determined as 34.6%; in [11], 11.8%. Moreover, the inhibition at 1 µM stood at 50.5% in data set [10] and 53.7% in [12]. Moreover, the inhibition entry in the data set on T-cell and with B was “Dose-dependent effect” in each case.

Consider `CC(=O)Oc1cc(C)c2c(c1C)C[C@H]([C@@H](C)C(=O)OCc1cn(-c3cc(I)ccc3C)nn1)CC2`, for which the Activity entry is “Toxic” in the data set listed under Mus musculus [1]; “Toxic” in the data set listed under Mus musculus [2]; “Non-Toxic” in the data set listed under Mus musculus [3]; “Toxic” in the data set filed under Mus musculus [4]; “Toxic” in the data set filed under Mus musculus [5]; “Non-Toxic” in the data set listed under Mus musculus [6]. Moreover, the results for the inhibition at 100 µM in data set [7] and in data set [8] were 26.5% and 28%, respectively. Further, the inhibition at 10 µM in data set [9] came out at 34.6%; in data set [11], 38.2%. Moreover, the figures for the inhibition at 1 µM in data set [10] and in data set [12] were 39% and 34.5%, respectively. In addition, the inhibition result in the data set with T-cell and in the data set with B was “Dose-dependent effect” in each case.

Take `CC(=O)Oc1cc(C)c2c(c1C)C[C@H]([C@@H](C)C(=O)OCc1cn(-c3ccc(C(=O)c4ccccc4)cc3)nn1)CC2`: the Activity result in the data set listed under Mus musculus [1] was “Toxic”; in the data set filed under Mus musculus [2], “Toxic”; in the data set listed under Mus musculus [3], “Non-Toxic”; in the data set listed under Mus musculus [4], “Toxic”; in the data set filed under Mus musculus [5], “Toxic”; in the data set listed under Mus musculus [6], “Non-Toxic”. Also, the inhibition at 100 µM is 20% in [7] and 81.2% in data set [8]. Further, the results for the inhibition at 10 µM in data set [9] and in data set [11] were 75% and 28%, respectively. In addition, the inhibition at 1 µM amounted to 69.3% in [10] and 5.33% in data set [12]. In addition, the inhibition entry with T-cell and in the data set on B was “Dose-dependent effect” in each case.

As for `COc1ccccc1-n1cc(COC(=O)[C@H](C)[C@@H]2CCc3c(C)cc(OC(C)=O)c(C)c3C2)nn1`, the Activity result is on record as “Non-Toxic” in the data set filed under Mus musculus [1]; “Non-Toxic” in the data set listed under Mus musculus [2]; “Toxic” in the data set filed under Mus musculus [3]; “Non-Toxic” in the data set filed under Mus musculus [4]; “Non-Toxic” in the data set filed under Mus musculus [5]; “Toxic” in the data set filed under Mus musculus [6]. The inhibition at 100 µM in [7] was 29.4%; in [8] it was 6.59%. In addition, the inhibition at 10 µM is 32.4% in [9] and 33.1% in [11]. The inhibition at 1 µM is 27.5% in data set [10] and 8.08% in [12]. Moreover, the inhibition entry in the data set on T-cell and in the data set with B was “Dose-dependent effect” each time.

(Values after ChEMBL document CHEMBL3853300, “Synthesis of α-santonin derived acetyl santonous acid triazole derivatives and their bioevaluation for T and B-cell proliferation” (Eur J Med Chem, 2016).)
